# Data from US9663510B2, “Substituted triazolopyridines and their use as TTK inhibitors” (Bayer Intellectual Property GmbH, priority 2011, dated 2017).
# Read-outs that look alike come from different tables or passages of the source.
# Legend:
# [1] = Metabolic stability in vitro, dog liver microsomes (calculation of Fmax); type: in vitro ADME; details: maximal oral bioavailability calculated from microsomal half-life, 1 μM
# Experimental: (§1) The metabolic stability of test compounds in vitro was determined by incubating them at 1 μM with a suspension liver microsomes in 100 mM phosphate buffer, pH7.4 (NaH2PO4×H2O+Na2HPO4×2H2O) at a protein concentration of 0.5 mg/mL and at 37° C. The reaction was activated by adding a co-factor mix containing 1.2 mg NADP, 3 IU glucose-6-phosphate dehydrogenase, 14.6 mg glucose-6-phosphate and 4.9 mg MgCl2 in phosphate buffer, pH 7.4. Organic solvent in the incubations was limited to <0.2% dimethylsulfoxide (DMSO) and <1% methanol. During incubation, the microsomal suspensions were continuously shaken and aliquots were taken at 2, 8, 16, 30, 45 and 60 min, to which equal volumes of cold methanol were immediately added. Samples were frozen at −20° C. over night, subsequently centrifuged for 15 minutes at 3000 rpm and the supernatant was analyzed with an Agilent 1200 HPLC-system with LCMS/MS detection.
# (§2) The half-life of a test compound was determined from the concentration-time plot. From the half-life the intrinsic clearances were calculated. Together with the additional parameters liver blood flow, specific liver weight and microsomal protein content the hepatic in vivo blood clearance (CL) and the maximal oral bioavailability (Fmax) were calculated for the different species. The following parameter values were used: Liver blood flow—1.3 L/h/kg (human), 2.1 L/h/kg (dog), 4.2 L/h/kg (rat); specific liver weight—21 g/kg (human), 39 g/kg (dog), 32 g/kg (rat); microsomal protein content—40 mg/g.
# (§3) With the described assay only phase-I metabolism of microsomes is reflected, e.g. typically oxidoreductive reactions by cytochrome P450 enzymes and flavin mono-oxygenases (FMO) and hydrolytic reactions by esterases (esters and amides).
# [2] = Metabolic stability in vitro, human liver microsomes (calculation of Fmax); type: in vitro ADME; details: maximal oral bioavailability calculated from microsomal half-life, 1 μM
# Experimental: as §1, §2, §3
# [3] = Metabolic stability in vitro, rat liver microsomes (calculation of Fmax); type: in vitro ADME; details: maximal oral bioavailability calculated from microsomal half-life, 1 μM
# Experimental: as §1, §2, §3
# [4] = target: human kinase Mps-1 (Homo sapiens (Human), UniProt P33981); experiment: Mps-1 kinase assay (TR-FRET); type: biochemical
# Chain of human kinase Mps-1 (P33981 whole entry): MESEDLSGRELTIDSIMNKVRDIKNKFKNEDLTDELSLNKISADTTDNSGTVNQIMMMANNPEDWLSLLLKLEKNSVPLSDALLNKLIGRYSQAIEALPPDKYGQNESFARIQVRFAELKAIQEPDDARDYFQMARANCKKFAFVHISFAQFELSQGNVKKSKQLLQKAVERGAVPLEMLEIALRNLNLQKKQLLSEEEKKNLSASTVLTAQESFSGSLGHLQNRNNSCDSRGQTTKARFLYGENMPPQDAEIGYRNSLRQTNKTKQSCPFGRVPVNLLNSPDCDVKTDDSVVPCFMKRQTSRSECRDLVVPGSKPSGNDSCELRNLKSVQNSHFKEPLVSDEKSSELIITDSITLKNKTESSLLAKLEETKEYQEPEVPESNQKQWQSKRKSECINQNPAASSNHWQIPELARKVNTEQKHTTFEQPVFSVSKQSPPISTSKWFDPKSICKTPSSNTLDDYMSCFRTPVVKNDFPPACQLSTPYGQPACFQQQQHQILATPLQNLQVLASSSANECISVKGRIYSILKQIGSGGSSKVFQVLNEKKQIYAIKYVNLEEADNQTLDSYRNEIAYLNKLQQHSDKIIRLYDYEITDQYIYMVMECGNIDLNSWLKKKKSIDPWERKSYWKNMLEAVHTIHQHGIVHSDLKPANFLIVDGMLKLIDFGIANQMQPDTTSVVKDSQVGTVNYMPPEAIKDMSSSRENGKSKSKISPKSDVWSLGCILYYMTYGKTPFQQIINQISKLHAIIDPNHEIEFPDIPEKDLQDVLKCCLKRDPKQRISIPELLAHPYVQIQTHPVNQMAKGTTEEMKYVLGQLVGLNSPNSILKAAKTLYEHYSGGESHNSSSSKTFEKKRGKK
# [5] = test system: HeLa human cervical tumor cells; experiment: HeLa cell proliferation assay (crystal violet); type: cell-based; details: 96 h, 4 days incubation, read-out: Inhibition of cell proliferation, cell Line: HeLa IC50
# [6] = read-out: Mps-1 Inhibition, IC50 (Assay with 10 μM ATP), 10 μM ATP
# [7] = read-out: Mps-1 Inhibition, IC50 (Assay with 2 mM ATP), 2 mM ATP
Structure (SMILES),Dog liver microsomes; Fmax [%] [1],Human liver microsomes; Fmax [%] [2],Rat liver microsomes; Fmax [%] [3],"IC50 [4, 6]","IC50 [4, 7]",IC50 ([4]; 2 mM ATP),IC50 [5]
COc1cc(S(C)(=O)=O)ccc1Nc1nc2ccc(-c3ccc(NC(=O)Cc4ccc(F)cc4)cc3)cn2n1 [reference compound],10%,,,,,,
"C[C@@H](C(=O)Nc1ccc(-c2ccc3nc(Nc4ccc(S(C)(=O)=O)cc4OCC(F)(F)F)nn3c2)cc1)c1ccc(F)cc1 [Example 01.03, (2R)-2-(4-fluorophenyl)-N-[4-(2-{[4-(methylsulfonyl)-2-(2,2,2-trifluoro-ethoxy)phenyl]amino}[1,2,4]triazolo[1,5-a]pyridin-6-yl)phenyl]-propanamide]",55%,>95%,93%,< 1 nM,< 1 nM,,
COc1cc(C(=O)NCC(F)(F)F)ccc1Nc1nc2ccc(-c3ccc(NC(=O)Cc4ccc(F)cc4)cc3)cn2n1 [reference compound],40%,,,,,,
N#Cc1ccccc1Nc1nc2ccc(-c3ccc(NC(=O)Cc4ccc(F)cc4)cc3)cn2n1 [reference compound],,,40%,,,,
COC(C(=O)Nc1ccc(-c2ccc3nc(Nc4ccccc4C#N)nn3c2)cc1)c1ccccc1 (centres unmarked) [reference compound],,,19%,,,,
CCOc1cc(S(C)(=O)=O)ccc1Nc1nc2ccc(-c3ccc(C(=O)NCc4ccc(F)cc4)c(C)c3)cn2n1 [reference compound],12%,,,,,,
"CS(=O)(=O)c1ccc(Nc2nc3ccc(-c4ccc(NC(=O)C(CO)c5ccc(F)cc5)cc4)cn3n2)c(OCC(F)(F)F)c1 (single isomer, unassigned) [Example01.10, (−)-2-(4-fluorophenyl)-3-hydroxy-N-[4-(2-{[4-(methylsulfonyl)-2-(2,2,2-tri-fluoroethoxy)phenyl]amino}[1,2,4]triazolo[1,5-a]pyridin-6-yl)phenyl]-propanamide]",>95%,>95%,>95%,< 1 nM,,1.1 nM,< 200 nM
N#Cc1c(F)cccc1Nc1nc2ccc(-c3ccc(NC(=O)Cc4ccc(F)cc4)cc3)cn2n1 [reference compound],15%,,,,,,
"COc1cc(C(=O)N2CC(F)C2)ccc1Nc1nc2ccc(-c3ccc(NC(=O)[C@H](C)c4ccc(F)cc4)cc3)cn2n1 [Example 01.07, (2R)-N-{4-[2-({4-[(3-fluoroazetidin-1-yl)carbonyl]-2-methoxyphenyl}amino)-[1,2,4]triazolo[1,5-a]pyridin-6-yl]phenyl}-2-(4-fluorophenyl)propanamide]",86%,>95%,83%,,,,
"C[C@@H](C(=O)Nc1ccc(-c2ccc3nc(Nc4ccc(C(N)=O)cc4OCC(F)(F)F)nn3c2)cc1)c1ccc(F)cc1 [Example01.06, 4-{[6-(4-{[(2R)-2-(4-fluorophenyl)propanoyl]amino}phenyl)[1,2,4]triazolo-[1,5-a]pyridin-2-yl]amino}-3-(2,2,2-trifluoroethoxyl)benzamide]",81%,>95%,94%,< 1 nM,,1.5 nM,< 100 nM
CS(=O)(=O)c1ccc(Nc2nc3ccc(-c4ccc(NC(=O)Cc5ccc(F)cc5)cc4)cn3n2)c(OCC(F)(F)F)c1 [reference compound],25%,,,,,,
N#Cc1ccccc1Nc1nc2ccc(-c3ccc(NC(=O)C(F)(F)c4ccccc4)cc3)cn2n1 [reference compound],,,27%,,,,
COc1cc(C(=O)N2CCOCC2)ccc1Nc1nc2ccc(-c3ccc(NC(=O)Cc4ccc(F)cc4)cc3)cn2n1 [reference compound],,,48%,,,,
"COc1cc(N2CCOC2=O)ccc1Nc1nc2ccc(-c3ccc(NC(=O)[C@H](C)c4ccc(F)cc4)cc3)cn2n1 [Example 01.09, (2R)-2-(4-fluorophenyl)-N-[4-(2-{[2-methoxy-4-(2-oxo-1,3-oxazolidin-3-yl)phenyl]amino}[1,2,4]triazolo[1,5-a]pyridin-6-yl)phenyl]propanamide]",48%,49%,58%,,,,
COc1ccccc1Nc1nc2ccc(-c3ccc(NC(=O)Cc4ccccc4)cc3)cn2n1 [reference compound],,,40%,,,,
"COc1cc(C(=O)NCC(F)(F)F)ccc1Nc1nc2ccc(-c3ccc(NC(=O)[C@H](C)c4ccc(F)cc4)cc3)cn2n1 [Example 01.04, 4-{[6-(4-{[(2R)-2-(4-fluorophenyl)propanoyl]amino}phenyl)[1,2,4]-triazolo[1,5-a]pyridin-2-yl]amino}-3-methoxy-N-(2,2,2-trifluoro-ethyl)benzamide]",94%,>95%,87%,< 1 nM,,2 nM,< 400 nM
COc1cc(C(N)=O)ccc1Nc1nc2ccc(-c3ccc(NC(=O)[C@H](C)c4ccc(F)cc4)cc3)cn2n1 [Example01.05],89%,>95%,>95%,< 1 nM,,1.2 nM,< 100 nM
"COc1cc(S(C)(=O)=O)ccc1Nc1nc2ccc(-c3ccc(NC(=O)[C@H](N)c4ccc(F)cc4)cc3)cn2n1 [Example01.11, (2R)-2-amino-2-(4-fluorophenyl)-N-[4-(2-{[2-methoxy-4-(methylsulfonyl)-phenyl]amino}[1,2,4]triazolo[1,5-a]pyridin-6-yl)phenyl]ethanamide]",75%,76%,92%,< 1 nM,,9 nM,< 600 nM
N#Cc1ccccc1Nc1nc2ccc(-c3ccc(NC(=O)C(F)c4ccccc4)cc3)cn2n1 (centres unmarked) [reference compound],,,26%,,,,
"COc1cc(C(=O)N2CCC2)ccc1Nc1nc2ccc(-c3ccc(NC(=O)[C@H](C)c4ccc(F)cc4)cc3)cn2n1 [Example01.08, (2R)—N-[4-(2-{[4-(azetidin-1-ylcarbonyl)-2-methoxyphenyl]amino}[1,2,4]-triazolo[1,5-a]pyridin-6-yl)phenyl]-2-(4-fluorophenyl)propanamide]",75%,62%,74%,< 1 nM,< 1 nM,,
"COc1cc(S(C)(=O)=O)ccc1Nc1nc2ccc(-c3ccc(NC(=O)[C@H](C)c4ccc(F)cc4)cc3)cn2n1 [Example 01.01, (2R)-2-(4-fluorophenyl)-N-[4-(2-{[2-methoxy-4-(methylsulfonyl)phenyl]-amino}[1,2,4]triazolo[1,5-a]pyridin-6-yl)phenyl]propanamide]",64%,92%,92%,,,,< 400 nM
COc1cc(N2CCOC2=O)ccc1Nc1nc2ccc(-c3ccc(NC(=O)Cc4ccc(F)cc4)cc3)cn2n1 [reference compound],17%,,,,,,
"CCOc1cc(S(C)(=O)=O)ccc1Nc1nc2ccc(-c3ccc(NC(=O)[C@H](C)c4ccc(F)cc4)cc3)cn2n1 [Example01.02, (2R)—N-[4-(2-{[2-ethoxy-4-(methylsulfonyl)phenyl]amino}[1,2,4]-triazolo[1,5-a]pyridin-6-yl)phenyl]-2-(4-fluorophenyl)propanamide]",73%,68%,86%,< 1 nM,< 1 nM,,< 600 nM
